Key:
[1] = system: L3.6pl cells; assay: Intracellular polyamine and Ant-44 levels (N-dansylation, HPLC) in L3.6pl cells; format: cell-based, human; details: 3.3 μM compound 10 (SR isomer), FIG. 10I
[2] = target: T1, LAT-1 (Homo sapiens, UniProt Q01650); assay: 3H-Leucine efflux assay; format: cell-based; details: L3.6pl
T1 construct: endogenous in cells; host or cells: L3.6pl human pancreatic cancer cells
Source text: JPH203 is not toxic to L3.6pl cells over this concentration range and time interval. FIG. 10E is an example according to various embodiments, illustrating results obtained for a Leu uptake inhibition experiment with compound 10. Note: the y-axis in FIG. 10E is in CPM per ug of protein to normalize the data and account for any potential losses of cells due to toxicity of compound 10. FIG. 10F is an example according to various embodiments, illustrating results obtained for a Leucine efflux experiment with LAT-1 inhibitor JPH-203. Briefly, the efflux procedure involved cells pre-incubated with ‘hot’ leucine (3H labeled) and washed to remove unbound radiolabeled Leucine. The cells were then incubated in the presence and absence of unlabeled Leucine (100 μM) and/or the LAT-1 inhibitor JPH-203 (30 μM). In the presence of unlabeled leucine, the cells released ‘hot’ 3H-leucine into the media which was measured via scintillation/radioactivity counts. This efflux or release from within the cell was inhibited by the presence of the LAT-1 inhibitor, JPH-203 (30 μM, FIG. 10F). Since JPH203 inhibits the import of unlabeled leucine then less unlabeled Leucine will enter the cell and less efflux of radiolabeled Leucine molecules from inside the cell will be observed. This is consistent with JPH-203 being a LAT-1 inhibitor. FIG. 10G is an example according to various embodiments, illustrating results obtained for a two minute Leucine efflux experiment with compound 10. Cells were pre-incubated with ‘hot’ leucine (^3H labeled) and washed to remove unbound radiolabeled Leucine. The cells were then incubated in the presence and absence of unlabeled “cold” Leucine (100 μM) and/or the compound 10 (20 μM). In the presence of unlabeled ‘cold’ leucine, the cells released ‘hot’ ^3H-leucine into the media which was measured via scintillation/radioactivity counting. […] The efflux experiment was repeated and the time for monitoring efflux increased to 30 minutes. […] In summary, compound 10 inhibits Leucine uptake and facilitates LAT-1 mediated efflux.
^3H-Leucine Efflux Assay ^3H-Leucine efflux experiments were performed according to the protocol developed by Hälfliger et al. (2018) (referenced below) with the following changes. Briefly, cells were preloaded with 12 μM stock of L-[^3H]leucine (79 Ci/mmol) to give a final concentration of ^3H-leucine was 1.2 μM in each well. […] The medium was then collected and mixed with scintillation fluid (Scintiverse™ BD Cocktail) and radioactivity measured (Beckman Coulter LS 6500 Multi-Purpose Scintillation Counter). […] The lysate (300 μL) was mixed with scintillation fluid and radioactivity was counted. Relative efflux was expressed as percentage radioactivity=100%×(radioactivity of medium)/(radioactivity of the medium+radioactivity of the cells). […]

[3] = system: L3.6pl cells; assay: Attached cell count (hemocytometer) after 72 h; format: cell-based, human
Experimental: In parallel with the above experiments, a dose dependence experiment was performed looking at how compound 10 at 0, 2, 5 and 7 μM affected L3.6pl cell attachment and cell number after 72 h incubation at 37° C. Successively more detached cells were observed as the concentration of compound 10 increased, particularly from 5 μM to 7 μM.
Cells were incubated with compound 10 for 72 h at 37° C. A 250 μM AG solution was incubated with the cells for 24 h prior to compound addition. Each condition was performed in duplicate.
This example illustrates aspects according to various embodiments pertaining to a 72 h experiment with Compound 10 in L3.6pl cells. Ten milliliters of a cell suspension containing L3.6pl human pancreatic cancer cells (50,000 cells/mL) and aminoguanidine ([…]) were placed in treated plastic Petri dishes (d=9 cm) and incubated overnight at 37° C. After 24 h, the cells were dosed with compound 10 at 2 μM, 5 μM, or 7 μM. (Note: Stock solutions of 10 at 2, 5, and 7 mM were dissolved in phosphate buffered saline (PBS) and were filtered through a 0.2 μm filter prior to use. The experiments were maintained with a total volume of 10.01 mL where 10 mL of the cell suspension was placed in a plastic dish and each compound or the equivalent PBS volume was added to make up the total volume 10.01 mL for each dish. For example, for the control experiment PBS (10 μL) was added to make up the total volume (10 mL+10 μL=10.01 mL). After 72 h incubation, the cells were collected first by pipetting off the supernatant containing floating dead cells from the culture dish as well as media and placing them into 15 mL tubes. The supernatant containing floating cells was centrifuged (4 min at 1,000 rpm). The cell-free supernatant (supernatant #1) was collected into a new 15 mL tube and quantified (˜8.6 mL) and was then stored frozen and was later quantified by LCMS to investigate the media composition of particular polyamine and amino acid analytes. The attached cells on the dish were washed with PBS (5 mL). The PBS wash was removed by suction and additional PBS (2 mL) was added and again suctioned off to provide twice-washed cells still adhered to the dish. Trypsin (2 mL) was then added to each dish and incubated (3-5 min) until all the cells were detached. Fresh media (8 mL) was added to quench the trypsin. The cell solutions were pipetted into separate 15 mL tubes and centrifuged (4 min at 1,000 rpm). The resulting supernatant was removed to provide a pellet. The pellet was suspended in PBS (10 mL) and was counted by a hemocytometer to provide cell counts for each experimental condition. The pellet was then centrifuged (4 min at 1,000 rpm) and the supernatant removed and the remaining pellet was quantified via protein and polyamine analysis.

T1 sequence (Q01650 whole entry): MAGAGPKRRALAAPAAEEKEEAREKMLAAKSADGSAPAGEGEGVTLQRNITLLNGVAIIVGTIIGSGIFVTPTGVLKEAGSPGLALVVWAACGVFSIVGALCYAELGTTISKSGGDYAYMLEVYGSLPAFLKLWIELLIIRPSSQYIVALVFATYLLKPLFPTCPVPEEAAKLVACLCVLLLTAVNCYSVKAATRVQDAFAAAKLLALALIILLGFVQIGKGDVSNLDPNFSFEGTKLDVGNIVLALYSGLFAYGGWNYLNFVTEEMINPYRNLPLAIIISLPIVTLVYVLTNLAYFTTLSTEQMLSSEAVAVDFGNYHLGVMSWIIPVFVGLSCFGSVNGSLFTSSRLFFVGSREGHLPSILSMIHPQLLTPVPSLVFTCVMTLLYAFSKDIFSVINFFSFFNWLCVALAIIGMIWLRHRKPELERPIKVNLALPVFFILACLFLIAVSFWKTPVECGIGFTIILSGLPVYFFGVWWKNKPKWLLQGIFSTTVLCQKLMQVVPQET
T1 sequence (P08195 102-630 partner): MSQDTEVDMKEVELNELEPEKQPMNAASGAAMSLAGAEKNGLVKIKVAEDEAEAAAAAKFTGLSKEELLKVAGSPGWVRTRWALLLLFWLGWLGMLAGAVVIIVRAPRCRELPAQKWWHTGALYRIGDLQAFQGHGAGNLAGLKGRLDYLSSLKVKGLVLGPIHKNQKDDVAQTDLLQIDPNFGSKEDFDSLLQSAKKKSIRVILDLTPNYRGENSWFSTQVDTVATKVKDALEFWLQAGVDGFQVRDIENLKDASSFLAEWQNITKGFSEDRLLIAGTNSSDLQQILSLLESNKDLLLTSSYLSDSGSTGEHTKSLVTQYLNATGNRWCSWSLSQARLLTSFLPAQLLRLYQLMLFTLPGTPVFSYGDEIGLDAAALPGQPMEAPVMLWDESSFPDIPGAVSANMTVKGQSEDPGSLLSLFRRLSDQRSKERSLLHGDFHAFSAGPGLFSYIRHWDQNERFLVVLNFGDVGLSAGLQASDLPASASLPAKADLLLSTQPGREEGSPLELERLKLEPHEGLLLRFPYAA

SMILES: CC(C)CCN1CCN(C(CNCc2ccccc2)CC2CCCCC2)CC1CC(C)C.Cl.Cl.Cl (centres unmarked) [Compound 10, Benzyl-{3-cyclohexyl-2-[3-isobutyl-4-(3-methyl-butyl)-piperazin-1-yl]-propyl}-amine trihydrochloride salt]
- intracellular levels of polyamine metabolites [1]: lower levels of polyamines and N-acetylspermine
- 3H-leucine efflux, compound alone ([2]; 2 min, JPH-203 30 μM or compound 10 20 μM): slight increase in efflux
- efflux of radiolabeled leucine ([2]; 30 minutes, in presence and absence of leucine (1 μM), vs untreated control (FIG. 10H)): increased efflux
- Cell Count ([3]; 2 μM): 9.40 millions
- Cell Count ([3]; 5 μM): 4.35 millions
- loss of the attached cell population ([3]; 5 μM): 58%
- Cell Count ([3]; 7 μM): 2.10 millions
- loss of the attached cell population ([3]; 7 μM): 80%

— patent US20210317090A1, “AMINO ACID DEPLETION AGENTS AS ANTIPROLIFERATIVE AGENTS” (University of Central Florida Research Foundation, Inc., priority 2018, published 2021)
